Tests used:
Assay type in all cases: functional, organism-based
Rattus norvegicus [1] = test: Carcinogenic activity on ear duct after oral administration
Rattus norvegicus [2] = test: Carcinogenic activity on breast after oral administration of the compound
Rattus norvegicus [3] = test: Carcinogenic activity on all sites after oral administration
Rattus norvegicus [4] = test: Carcinogenic activity on other sites after oral administration
Rattus norvegicus [5] = test: Carcinogenic activity on mixed data after oral administration
Rattus norvegicus [6] = test: Carcinogenic activity on liver after oral administration

Compound | Activity (Rattus norvegicus [1]) | Activity (Rattus norvegicus [2]) | Activity (Rattus norvegicus [3]) | Activity (Rattus norvegicus [4]) | Activity (Rattus norvegicus [5]) | Activity (Rattus norvegicus [6])
CC(=O)Nc1cc(F)c2c(c1)Cc1ccccc1-2 | Carcinogenic activity | Carcinogenic activity | Carcinogenic activity |  |  | 
CC(=O)N(O)c1ccc(/C=C/c2ccccc2)cc1 | Carcinogenic activity | Carcinogenic activity | Carcinogenic activity | Carcinogenic activity | Carcinogenic activity | 
CN(C)c1ccc(/C=C/c2ccccc2)cc1 | Carcinogenic activity |  | Carcinogenic activity |  |  | 
CN(C)c1ccc(/C=C/c2ccc(Cl)cc2)cc1 | Carcinogenic activity |  | Carcinogenic activity |  |  | 
CN(C)c1ccc(/C=C/c2ccc(F)cc2)cc1 | Carcinogenic activity |  | Carcinogenic activity |  |  | 
Cc1cccc(/C=C/c2ccc(N(C)C)cc2)c1 | Carcinogenic activity |  | Carcinogenic activity |  |  | 
Nc1ccc(/N=N/c2ccccc2)cc1 |  |  | Carcinogenic activity | Carcinogenic activity |  | 
CN(C)Nc1nc(-c2ccc([N+](=O)[O-])o2)cs1 |  |  | Carcinogenic activity | Carcinogenic activity |  | 
Nc1nc(N)nc(-c2ccc([N+](=O)[O-])o2)n1 |  | Carcinogenic activity | Carcinogenic activity |  |  | 
O=C(O)CCC(=O)Nc1ccc2c(c1)Cc1ccccc1-2 |  |  | Carcinogenic activity |  |  | Carcinogenic activity
ONc1cccc2ccccc12 |  |  | Carcinogenic activity | Carcinogenic activity |  | 
CC(=O)N(O)c1ccc(-c2ccccc2)cc1 | Carcinogenic activity | Carcinogenic activity | Carcinogenic activity | Carcinogenic activity | Carcinogenic activity | 
Cc1cc2ccccc2cc1N |  | Carcinogenic activity | Carcinogenic activity | Carcinogenic activity |  | 
Nc1ccc(-c2ccccc2)cc1F |  | Carcinogenic activity | Carcinogenic activity |  |  | 
CC(=O)Nc1ccc2c(c1)Cc1ccccc1S2 | Carcinogenic activity | Carcinogenic activity | Carcinogenic activity | Carcinogenic activity | Carcinogenic activity | 
Nc1ccc(-c2ccc(N)c(Cl)c2)cc1Cl | Carcinogenic activity | Carcinogenic activity | Carcinogenic activity | Carcinogenic activity | Carcinogenic activity | 
Nc1cc2ccccc2c2ccccc12 |  | Carcinogenic activity | Carcinogenic activity |  |  | 
ONc1ccc(/C=C/c2ccccc2)cc1 |  |  | Carcinogenic activity | Carcinogenic activity |  | 
Nc1ccc(-c2cccc(F)c2)cc1 |  | Carcinogenic activity | Carcinogenic activity |  |  | 
CC(=O)Nc1ccc2c(c1)Cc1cccc(NC(C)=O)c1-2 |  | Carcinogenic activity | Carcinogenic activity |  |  | 
Cn1cnc([N+](=O)[O-])c1Sc1ncnc2[nH]cnc12 | Carcinogenic activity |  | Carcinogenic activity | Carcinogenic activity |  | 
NCC(=O)Nc1ccc2c(c1)-c1ccccc1C2 |  |  | Carcinogenic activity |  |  | Carcinogenic activity

Compound | Activity (Rattus norvegicus [1]) | Activity (Rattus norvegicus [2]) | Activity (Rattus norvegicus [3]) | Activity (Rattus norvegicus [4]) | Activity (Rattus norvegicus [5]) | Activity (Rattus norvegicus [6])
O=CNc1nc(-c2ccc([N+](=O)[O-])o2)cs1 |  | Carcinogenic activity | Carcinogenic activity | Carcinogenic activity |  | 
CC(=O)Nc1nc(-c2ccc([N+](=O)[O-])o2)no1 |  |  | Carcinogenic activity | Carcinogenic activity |  | Carcinogenic activity
Nc1ccc(Cc2ccc(N)c(Cl)c2)cc1Cl |  |  | Carcinogenic activity | Carcinogenic activity |  | Carcinogenic activity
COc1ccc(/N=N/c2ccc(N)c(OC)c2)cc1 |  |  | Carcinogenic activity | Carcinogenic activity |  | Carcinogenic activity
Cc1cccc(/N=N/c2cc(C)ccc2N)c1 |  |  | Carcinogenic activity |  |  | Carcinogenic activity
CC(=O)Nc1ccc2c(c1)oc1ccccc12 | Carcinogenic activity | Carcinogenic activity | Carcinogenic activity |  |  | 
CC(=O)Nc1ccc2c(c1)Cc1cccc(F)c1-2 | Carcinogenic activity | Carcinogenic activity | Carcinogenic activity |  |  | 
Cc1cc(-c2ccccc2)ccc1N | Carcinogenic activity |  | Carcinogenic activity | Carcinogenic activity |  | 
CC(=O)Nc1cc2c(cc1I)-c1ccccc1C2 | Carcinogenic activity |  | Carcinogenic activity |  |  | 
Nc1nc[nH]n1 |  |  | Carcinogenic activity | Carcinogenic activity |  | Carcinogenic activity
Nc1ccc2c(c1)Cc1cc(N)ccc1-2 |  | Carcinogenic activity | Carcinogenic activity |  |  | 
CC(=O)Nc1ccc2c(c1F)Cc1ccccc1-2 | Carcinogenic activity | Carcinogenic activity | Carcinogenic activity |  |  | 
COc1cc(/N=N/c2ccccc2)ccc1N | Carcinogenic activity |  | Carcinogenic activity | Carcinogenic activity | Carcinogenic activity | Carcinogenic activity
Nc1ccc2c(c1)CCc1ccccc1-2 | Carcinogenic activity |  | Carcinogenic activity | Carcinogenic activity | Carcinogenic activity | 
CC(=O)Nc1ccc2c(c1)Sc1ccccc1C2 | Carcinogenic activity | Carcinogenic activity | Carcinogenic activity | Carcinogenic activity | Carcinogenic activity | 
CCN(CC)c1ccc2c(c1)Cc1ccccc1-2 |  |  | Carcinogenic activity | Carcinogenic activity |  | 
O=CNc1ccc2c(c1)Cc1ccccc1-2 | Carcinogenic activity | Carcinogenic activity | Carcinogenic activity |  |  | 
CC(=O)Nc1ccc(/C=C/c2ccccc2)cc1 | Carcinogenic activity | Carcinogenic activity | Carcinogenic activity |  |  | 
Nc1ccc2ccc3ccccc3c2c1 |  | Carcinogenic activity | Carcinogenic activity |  |  | 
CN(C)c1ccc2cc3ccc(N(C)C)cc3nc2c1 |  |  | Carcinogenic activity |  |  | Carcinogenic activity
Nc1ccc(/C=C/c2ccc3ccccc3n2)cc1 | Carcinogenic activity |  | Carcinogenic activity |  |  | 
Nc1cc2ccccc2cc1[N+](=O)[O-] |  |  | Carcinogenic activity | Carcinogenic activity |  | 

From ChEMBL document CHEMBL1121791, “Computer-assisted structure-activity studies of chemical carcinogens. Aromatic amines” (J Med Chem, 1981)
